# Data: US20160045505A1, “COMPOUNDS AND COMPOSITIONS FOR THE TREATMENT OF PARASITIC DISEASES” (NOVARTIS AG, priority 2013, published 2016)
# Columns and labels:
# [1] = test system: Leishmania donovani axenic amastigote parasites; assay: Leishmania donovani axenic amastigote proliferation assay (Cell TiterGlo luminescence, 2 day incubation); type: cell-based; conditions: Leishmania donovani, L. donovani axenic amastigotes; read-out: L. donovani amastigotes EC50
# [2] = test system: L. donovani HU3 strain in mouse peritoneal macrophages; assay: Assay for proliferation of Leishmania parasites in infected mouse peritoneal macrophages (SybrGreen staining, high-content imaging, 5 days); type: cell-based, Leishmania donovani; conditions: Leishmania donovani, Peritoneal macrophage, L. donovani in mouse peritoneal macrophages; read-out: L. donovani Macrophage EC50
# [3] = test system: Trypanosoma brucei Lister 427 strain, bloodstream form; assay: Assay for proliferation of kinetoplastid parasite Trypanosoma brucei (Cell Titer Glo, 48 hours); type: cell-based; conditions: Trypanosoma brucei, T. brucei Lister 427 bloodstream form; read-out: T. brucei EC50
# How it was run: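 Bloodstream-form T. brucei Lister 427 in HMI-9 medium was exposed to compound (DMSO vehicle) for 48 hours at 37° C, 5% CO2. Parasite growth was read as ATP by CellTiter-Glo luminescence, with EC50 calculated from percent inhibition.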
# [4] = test system: Trypanosoma cruzi amastigotes (Tulahuen strain expressing Lac-Z) cultured in 3T3 fibroblast cells; assay: microbe, parasite or virus in culture; type: cell-based; conditions: Trypanosoma cruzi, TULAHUEN, Fibroblast, T. cruzi amastigotes in 3T3 fibroblast cells; read-out: T cruzi EC50
Compound,EC50 [1] [nM],EC50 [2] [nM],EC50 [3] [nM],EC50 [4] [nM]
Cc1nc(C)c(C(=O)Nc2ccc(F)c(-c3cn4cc(-c5cnn(C6CCOCC6)c5)cnc4n3)c2)o1 [Compound 385],268,> 36700,369,1160
Cc1nc(C)c(C(=O)Nc2ccc(F)c(-c3cn4cc(-c5cn[nH]c5)cnc4n3)c2)o1 [Compound 386],1500,> 50000,1550,> 20000
Cc1nc(C)c(C(=O)Nc2ccc(F)c(-c3cn4cc(-c5cnn(CCN6CCOCC6)c5)cnc4n3)c2)o1 [Compound 388],1010,2950,415,3530
Cc1nc(C)c(C(=O)Nc2ccc(F)c(-c3cn4cc(-c5cnn(C)c5)cnc4n3)c2)o1 [Compound 389],97,330,158,254
Cc1nc(C)c(C(=O)Nc2ccc(F)c(-c3cn4cc(-c5ccnn5C(C)C)cnc4n3)c2)o1 [Compound 390],53,174,54,75
Cc1nc(C)c(C(=O)Nc2ccc(F)c(-c3cn4cc(-c5ccccc5F)cnc4n3)c2)o1 [Compound 391],56,129,53,16
CNc1ccc(-c2cnc3nc(-c4cc(NC(=O)c5oc(C)nc5C)ccc4F)cn3c2)cc1 [Compound 392],103,152,55,48
Cc1nc(C)c(C(=O)Nc2ccc(F)c(-c3cn4cc(-c5ccnn5C)cnc4n3)c2)o1 [Compound 393],147,183,110,149
Cc1nc(C)c(C(=O)Nc2ccc(F)c(-c3cn4cc(-c5cccnc5)cnc4n3)c2)o1 [Compound 395],109,187,45,153
Cc1nc(C)c(C(=O)Nc2ccc(F)c(-c3cn4cc(-c5ccc(F)cc5)cnc4n3)c2)o1 [Compound 396],55,88,42,17
Cc1nc(C)c(C(=O)Nc2ccc(F)c(-c3cn4cc(-c5ccccc5S(C)(=O)=O)cnc4n3)c2)o1 [Compound 397],337,448,68,200
Cc1ncc(C(=O)Nc2ccc(F)c(-c3cn4cc(-c5cccnc5)cnc4n3)c2)o1 [Compound 398],186,424,317,572
CC(C)OC(=O)Nc1ccc(F)c(-c2cn3cc(-c4cccnc4)cnc3n2)c1 [Compound 399],274,646,103,80
O=C(Nc1ccc(F)c(-c2cn3cc(-c4cccnc4)cnc3n2)c1)N1CC(F)C1 [Compound 401],94,263,34,445
O=C(Nc1ccc(F)c(-c2cn3cc(-c4cccnc4)cnc3n2)c1)N1CC(F)(F)C1 [Compound 402],69,285,11,251
O=C(Nc1ccc(F)c(-c2cn3cc(-c4cccnc4)cnc3n2)c1)N1CCC1 [Compound 405],94,361,13,271
O=C(Nc1ccc(F)c(-c2cn3cc(-c4ccccn4)cnc3n2)c1)N1CC[C@@H](F)C1 [Compound 407],9,14,4,14
O=C(Nc1ccc(F)c(-c2cn3cc(-c4cccnc4)cnc3n2)c1)N1CC[C@@H](F)C1 [Compound 408],78,246,18,237
O=C(Nc1ccc(F)c(-c2cn3cc(-c4ccccc4)cnc3n2)c1)N1CC[C@@H](F)C1 [Compound 409],19,61,4,5
"CC(C)c1cnc2nc(-c3cc(NC(=O)N4CCC4)ccc3F)cn2c1 [Compound 411, N-(4-fluoro-3-(6-isopropylimidazo[1,2-a]pyrimidin-2-yl)phenyl)azetidine-1-carboxamide]",83,154,22,46
Cc1nc(C)c(C(=O)Nc2ccc(F)c(-c3cn4cc(C(C)C)cnc4n3)c2)o1 [Compound 412],46,134,40,48
Cc1ncc(C(=O)Nc2ccc(F)c(-c3cn4cc(C(C)C)cnc4n3)c2)o1 [Compound 413],26,54,39,14

Compound,EC50 [1] [nM],EC50 [2] [nM],EC50 [3] [nM],EC50 [4] [nM]
CC(C)OC(=O)Nc1ccc(F)c(-c2cn3cc(C(C)C)cnc3n2)c1 [Compound 414],217,1160,131,115
CC(C)c1cnc2nc(-c3cc(NC(=O)N4CC(F)C4)ccc3F)cn2c1 [Compound 415],28,114,12,44
CC(C)c1cnc2nc(-c3cc(NC(=O)N4CC(F)(F)C4)ccc3F)cn2c1 [Compound 416],30,93,41,47
CC(C)c1cnc2nc(-c3cc(NC(=O)N(C)C)ccc3F)cn2c1 [Compound 417],250,1300,145,135
CC(C)c1cnc2nc(-c3cc(NC(=O)N4CC[C@@H](F)C4)ccc3F)cn2c1 [Compound 418],29,71,8,15
Cc1nc(C)c(C(=O)Nc2ccc(F)c(-c3cn4cc(C(C)c5ccccc5)cnc4n3)c2)o1 (stereo not shown) [Compound 420],830,1090,520,307
Cc1nc(C)c(C(=O)Nc2ccc(F)c(-c3cn4cc(C5CCCC5)cnc4n3)c2)o1 [Compound 422],126,305,33,193
CCc1cnc2nc(-c3cc(NC(=O)c4oc(C)nc4C)ccc3F)cn2c1 [Compound 423],90,217,35,48
Cc1ncc(C(=O)Nc2ccc(F)c(-c3cn4cc(C5CCOCC5)cnc4n3)c2)o1 [Compound 424],56,164,54,118
"Cc1nc(C)c(C(=O)Nc2ccc(F)c(-c3cn4cc(C5CCN(C(=O)OC(C)(C)C)CC5)cnc4n3)c2)o1 [Compound 425, tert-butyl 4-(2-(5-(2,4-dimethyloxazole-5-carboxamido)-2-fluorophenyl)imidazo[1,2-a]pyrimidin-6-yl)piperidine-1-carboxylate]",140,198,97,50
"Cc1nc(C)c(C(=O)Nc2ccc(F)c(-c3cn4cc(-c5cn(C)cn5)cnc4n3)c2)o1 [Compound 426, N-(4-fluoro-3-(6-(1-methyl-1H-imidazol-4-yl)imidazo[1,2-a]pyrimidin-2-yl)phenyl)-2,4-dimethyloxazole-5-carboxamide]",16,182,378,124
Cc1nc(C)c(C(=O)Nc2ccc(F)c(-c3cn4cc(-c5nccn5C)cnc4n3)c2)o1 [Compound 427],237,438,163,1330
Cc1nc(C)c(C(=O)Nc2ccc(F)c(-c3cn4cc(-c5cn(C(C)C)cn5)cnc4n3)c2)o1 [Compound 428],100,291,161,451
"Cc1nc(C)c(C(=O)Nc2ccc(F)c(-c3cn4cc(-c5ncc(F)cc5C)cnc4n3)c2)o1 [Compound 430, N-(4-fluoro-3-(6-(5-fluoro-3-methylpyridin-2-yl)imidazo[1,2-a]pyrimidin-2-yl)phenyl)-2,4-dimethyloxazole-5-carboxamide]",31,59,52,10
Cc1nc(C)c(C(=O)Nc2ccc(F)c(-c3cn4cc(-c5ccc(F)cn5)cnc4n3)c2)o1 [Compound 431],79,845,149,46
CNc1ccc(-c2cnc3nc(-c4cc(NC(=O)c5oc(C)nc5C)ccc4F)cn3c2)nc1 [Compound 432],12,33,18,21
Cc1nc(C)c(C(=O)Nc2ccc(F)c(-c3cn4cc(-c5cccc(C(N)=O)n5)cnc4n3)c2)o1 [Compound 433],1810,> 50000,494,> 20000
Cc1nc(C)c(C(=O)Nc2ccc(F)c(-c3cn4cc(-c5cccc(F)n5)cnc4n3)c2)o1 [Compound 434],107,924,160,42
Cc1nc(C)c(C(=O)Nc2ccc(F)c(-c3cn4cc(-c5cc(F)ccn5)cnc4n3)c2)o1 [Compound 435],19,49,42,16
Cc1nc(C)c(C(=O)Nc2ccc(F)c(-c3cn4cc(-c5ccc(F)nc5)cnc4n3)c2)o1 [Compound 436],77,1720,72,50
CC(=O)c1ccc(-c2cnc3nc(-c4cc(NC(=O)c5oc(C)nc5C)ccc4F)cn3c2)cn1 [Compound 437],80,1250,403,682
